Common to all, as to experiment: microbe, parasite or virus in culture
What all share (assay type): cell-based

In test [1] the test system is Mycobacterium tuberculosis CS-res. The note with it: read-out: MIC, CS-res.
The test system of test [2] is Mycobacterium tuberculosis SM-res. The note with it: read-out: MIC, SM-res.
Test [3] deals with Mycobacterium tuberculosis INH-res. The note with it: read-out: MIC, INH-res.
Test [4] shares this test system. The note with it: read-out: Minimum inhibitory concentration (on egg medium), resistant test strain INH-res.
Test [5] concerns Mycobacterium tuberculosis INH-TSC-res. The note with it: read-out: Minimum inhibitory concentration (on egg medium), resistant test strain INH-TSC-res.
Test [6] deals with Mycobacterium tuberculosis INH TSC ETH-res. The note with it: read-out: MIC, INH TSC ETH-res.
The subject of test [7] is Mycobacterium tuberculosis PAS-res. The note with it: read-out: MIC, PAS-res.

Each structure is given as a SMILES string. Converted amounts (≈) assume the structure as drawn. Like-named read-outs stand apart in the source and are kept apart here.

On to `O=C(NCc1ccccn1)c1cc([N+](=O)[O-])cc([N+](=O)[O-])c1` [Example 1, N-(pyrid-2-ylmethyl)-3,5-dinitrobenzoic acid amide], for which the MIC in test [1] was found to be 1.6 µg/mL (≈ 5.29 µM); in test [2] it was 1.6 µg/mL (≈ 5.29 µM); in test [3], 0.8 µg/mL (≈ 2.65 µM); in test [4], 1 µg/mL (≈ 3.31 µM); in test [5], 1 µg/mL (≈ 3.31 µM); in test [6] it was 0.8 µg/mL (≈ 2.65 µM). Moreover, the MIC in test [7] was determined as 1.6 µg/mL (≈ 5.29 µM).

As for `O=C(NCc1cnc2ccccc2c1)c1cc([N+](=O)[O-])cc([N+](=O)[O-])c1` [Example 9], the MIC in test [1] is 0.2 µg/mL (≈ 0.568 µM); in test [2], 0.2 µg/mL (≈ 0.568 µM); in test [3] it was 0.4 µg/mL (≈ 1.14 µM); in test [4] it was 2 µg/mL (≈ 5.68 µM); in test [5], 2 µg/mL (≈ 5.68 µM); in test [6] it was 0.03 µg/mL (≈ 0.0852 µM). Besides, in test [7], the MIC is 0.4 µg/mL (≈ 1.14 µM).

For the compound `O=C(NCCc1ccccn1)c1cc([N+](=O)[O-])cc([N+](=O)[O-])c1` [Example 10], the MIC in test [4] came out at 1 µg/mL (≈ 3.16 µM); in test [5], 32 µg/mL (≈ 101 µM).

Take `O=C(NCc1cccnc1)c1cc([N+](=O)[O-])cc([N+](=O)[O-])c1` [Example 12]: the MIC in test [4] is 8 µg/mL (≈ 26.5 µM); in test [5], 32 µg/mL (≈ 106 µM).

As for `O=C(NCc1ccncc1)c1cc([N+](=O)[O-])cc([N+](=O)[O-])c1` [Example 13], the MIC in test [4] and in test [5] was 128 µg/mL (≈ 423 µM) throughout.

Turning to `Cc1cccc(CNC(=O)c2cc([N+](=O)[O-])cc([N+](=O)[O-])c2)n1` [Example 14], the MIC in test [1] was 1.6 µg/mL (≈ 5.06 µM); in test [2], 1.6 µg/mL (≈ 5.06 µM); in test [3] it was 0.8 µg/mL (≈ 2.53 µM); in test [6], 0.8 µg/mL (≈ 2.53 µM); in test [7] it was 1.6 µg/mL (≈ 5.06 µM).

In the case of `O=C(NCc1ccc2ccccc2n1)c1cc([N+](=O)[O-])cc([N+](=O)[O-])c1` [Example 15], the MIC in test [1] is 0.2 µg/mL (≈ 0.568 µM); in test [2] it was 0.1 µg/mL (≈ 0.284 µM); in test [3], 0.1 µg/mL (≈ 0.284 µM); in test [4] it was 1 µg/mL (≈ 2.84 µM); in test [5], 1 µg/mL (≈ 2.84 µM); in test [6], 0.05 µg/mL (≈ 0.142 µM). Besides, the MIC in test [7] was 0.4 µg/mL (≈ 1.14 µM).

With `O=C(NCC1CCCO1)c1cc([N+](=O)[O-])cc([N+](=O)[O-])c1` (stereo not shown) [Example 20], the MIC in test [1], in test [2], in test [3], in test [6] and in test [7] was 1.6 µg/mL (≈ 5.42 µM) throughout.

`O=C(NCC1CCC=CO1)c1cc([N+](=O)[O-])cc([N+](=O)[O-])c1` (stereo not shown) [Example 22]: the MIC stood at 0.4 µg/mL (≈ 1.3 µM) in test [1]; 0.4 µg/mL (≈ 1.3 µM) in test [2]; 0.1 µg/mL (≈ 0.325 µM) in test [3]; 0.2 µg/mL (≈ 0.651 µM) in test [6]; 0.8 µg/mL (≈ 2.6 µM) in test [7].

Regarding `CC(NC(=O)c1cc([N+](=O)[O-])cc([N+](=O)[O-])c1)c1ccccn1` (stereo not shown) [Example 29], the MIC in test [1] turned out to be 1.6 µg/mL (≈ 5.06 µM); in test [2] it was 0.8 µg/mL (≈ 2.53 µM); in test [3] it was 1.6 µg/mL (≈ 5.06 µM); in test [4] it was 2 µg/mL (≈ 6.32 µM); in test [5], 2 µg/mL (≈ 6.32 µM); in test [6], 0.8 µg/mL (≈ 2.53 µM). Also, the MIC in test [7] worked out at 1.6 µg/mL (≈ 5.06 µM).

Values taken from US3995044A, “Pyridine carboxylic acid amides for mycobacterium infections” (priority 1974, dated 1976).
